This passage reports inhibition results from paper PMC8041284, “Tunable Methacrylamides for Covalent Ligand Directed Release Chemistry” (Journal of the American Chemical Society, 2021).

The structures appear in SMILES notation.

In the assay the target is BTK (Homo sapiens, UniProt Q06187). Nature of the assay: biochemical. The following applies: read-out: BTK inhibition (%), 0.75 uM BTK, […] probe 3l, 15 min preincubation.
BTK, sequence (Q06187 402-655 limits assumed): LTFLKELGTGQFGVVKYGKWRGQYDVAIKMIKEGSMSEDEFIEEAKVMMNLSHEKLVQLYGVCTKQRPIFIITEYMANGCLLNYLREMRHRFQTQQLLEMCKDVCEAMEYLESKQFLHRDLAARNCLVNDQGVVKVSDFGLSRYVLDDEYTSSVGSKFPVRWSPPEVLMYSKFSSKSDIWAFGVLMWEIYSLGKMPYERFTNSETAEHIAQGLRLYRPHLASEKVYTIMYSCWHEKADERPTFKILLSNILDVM
Consider `COc1cc(C(=O)N(CCCc2ccccc2)Cc2ccc(CC(=O)O)cc2)cc(OC)c1C` [PCM-0215725], for which the inhibition at 10 µM was determined as 16.2%.

`CC12CCC(C1)C(C)(C)C2O` (stereo not drawn) [PCM-0216150]: the inhibition at 10 µM was -13.9%.

With `C[C@@H](N)C1CCC(C(=O)Nc2ccncc2)CC1` (stereo partly drawn) [PCM-0094977], the inhibition at 10 µM was -2.1%.

With `Cc1cc(=O)c2c(O)c3c(cc2o1)OC(C)(C)[C@@H](O[C@@H]1O[C@H](CO)[C@@H](O)[C@H](O)[C@H]1O)C3` [PCM-0216445], the inhibition at 10 µM was -30.1%.

With `O=C(O)/C=C/c1ccc(O)cc1` [PCM-0214939], the inhibition at 10 µM was -21.8%.

As to `NC(=O)Nc1sc(-c2ccc(F)cc2)cc1C(N)=O` [PCM-0095452], the inhibition at 10 µM turned out to be 96.6%.

As for `O=P(O)(O)C(O)(Cc1cccnc1)P(=O)(O)O` [PCM-0090360], the inhibition at 10 µM is -3.4%.

Consider `Cc1ccc(S(=O)(=O)OCC(=O)Nc2ccc(C(=O)O)c(O)c2)cc1` [PCM-0094985], for which the inhibition at 10 µM came to 29.6%.

Regarding `O=C(O)[C@H](O)Cc1ccc(O)c(O)c1` [PCM-0215761], the inhibition at 10 µM was determined as 7.7%.

As for `CC(C)(C)c1cc(O)ccc1O` [PCM-0215107], the inhibition at 10 µM came to 5.5%.

Consider `COC(c1ccccc1)(c1ccccc1)[C@H](Oc1nc(C)cc(C)n1)C(=O)O` [PCM-0095259], for which the inhibition at 10 µM turned out to be 10.9%.

In the case of `C=C1CCC[C@]2(C)C=C3OC(=O)C(C)=C3C[C@@H]12` [PCM-0215796], the inhibition at 10 µM was -4.1%.

`CC(C(=O)O)c1ccc(CC2CCCC2=O)cc1` (stereo not drawn) [PCM-0065463]: the inhibition at 10 µM was found to be 1.7%.

Take `C[C@H]1Oc2cc(cnc2N)-c2c(nn(C)c2C#N)CN(C)C(=O)c2ccc(F)cc21` [PCM-0215394]: the inhibition at 10 µM came to 17.9%.

On to `CC(CNC(=O)c1cccnc1)NC(=O)c1cccnc1` (stereo not drawn) [PCM-0214789], for which the inhibition at 10 µM is -8.6%.

In the case of `O=C(N[C@@H](c1ccccc1)[C@@H](O)C(=O)O)c1ccccc1` [PCM-0216301], the inhibition at 10 µM worked out at 9.3%.

On to `C=C1CC[C@@H]2[C@](C)(CO)[C@H](O)CC[C@@]2(C)[C@H]1C/C=C1\C=COC1=O` [PCM-0215003], for which the inhibition at 10 µM was found to be 14%.

As to `CC(C)c1cnn2c(NCc3ccccc3)cc(NCCCCCCN)nc12` [PCM-0095134], the inhibition at 10 µM was -25.5%.

`C=C1/C(=C\C=C2/CCC[C@]3(C)[C@@H]([C@H](C)CCCC(C)C)CC[C@@H]23)C[C@@H](O)C[C@@H]1O` [PCM-0086012]: the inhibition at 10 µM is -3.1%.

Regarding `C[C@H]1CNCCCN1S(=O)(=O)c1cccc2cncc(F)c12` [PCM-0215585], the inhibition at 10 µM is -14.5%.

As for `c1ccc(NCc2ccc(CNc3ccccn3)cc2)nc1` [PCM-0095395], the inhibition at 10 µM is -4.8%.

For `N=c1cc(N2CCCCC2)nc(N)n1OS(=O)(=O)O` [PCM-0216071], the inhibition at 10 µM is -9.3%.

Take `NC(=O)c1ccc[n+]([O-])c1` [PCM-0215057]: the inhibition at 10 µM was determined as 5.4%.

For the molecule `Oc1ccc2ccccc2c1N=Nc1ccc(N=Nc2ccccc2)cc1` [PCM-0215976], the inhibition at 10 µM is -3.1%.

With `O=C(O)Cc1cccc(OCCCN(Cc2cccc(C(F)(F)F)c2Cl)CC(c2ccccc2)c2ccccc2)c1` [PCM-0095493], the inhibition at 10 µM is 23.4%.

In the case of `O=C(NS(=O)(=O)c1ccc(Br)s1)c1ccc(Cl)cc1Cl` [PCM-0095739], the inhibition at 10 µM was -10%.

As for `CCCNC(=O)[C@H]1O[C@@H]1C(=O)N[C@H](C(=O)N1CCC[C@H]1C(=O)OC)[C@@H](C)CC` [PCM-0215739], the inhibition at 10 µM was -31.7%.

`CCCOC(=O)c1cc(O)c(O)c(O)c1` [PCM-0215973]: the inhibition at 10 µM was 11.6%.

Consider `CC(C)=CCC[C@](C)(O[C@@H]1O[C@H](CO[C@@H]2O[C@@H](CO)[C@H](O)[C@H]2O)[C@@H](O)[C@H](O)[C@H]1O)[C@H]1CC[C@]2(C)[C@@H]1[C@H](O)C[C@@H]1[C@@]3(C)CC[C@H](O[C@@H]4O[C@H](CO)[C@@H](O)[C@H](O)[C@H]4O[C@@H]4O[C@H](CO)[C@@H](O)[C@H](O)[C@H]4O)C(C)(C)[C@@H]3CC[C@]12C` [PCM-0216509], for which the inhibition at 10 µM is -10%.

As to `CCC(C)n1ncn(-c2ccc(N3CCN(c4ccc(OC[C@H]5CO[C@](Cn6cncn6)(c6ccc(Cl)cc6Cl)O5)cc4)CC3)cc2)c1=O` (stereo partly drawn) [PCM-0090573], the inhibition at 10 µM is -13.6%.

Consider `C#Cc1cccc(Nc2ncnc3cc(OCCOC)c(OCCOC)cc23)c1` [PCM-0085975], for which the inhibition at 10 µM stood at 1.7%.

Consider `O=C1[C@H](CC[C@H](O)c2ccc(F)cc2)[C@@H](c2ccc(O)cc2)N1c1ccc(F)cc1` [PCM-0095103], for which the inhibition at 10 µM stood at 31%.

Take `C=C[C@H]1CN2CC[C@H]1C[C@H]2[C@H](O)c1ccnc2ccccc12` [PCM-0094829]: the inhibition at 10 µM was -10.9%.

As to `O=C1OC(COc2ccccc2[N+](=O)[O-])CC1Cc1ccccc1` (stereo not drawn) [PCM-0215840], the inhibition at 10 µM was -3.1%.

As to `O=C(NCCN1CCOCC1)Nc1ccc(C(=O)/C=C/c2cccc(N3CCOCC3)n2)cc1` [PCM-0215849], the inhibition at 10 µM was -0.8%.

With `N[C@@H](C(=O)N[C@@H]1C(=O)N2C(C(=O)O)=C(Cl)CS[C@H]12)c1ccccc1` [PCM-0214861], the inhibition at 10 µM is -13.2%.

Regarding `CC1=C(CC[C@@H](C)CO[C@@H]2O[C@H](CO)[C@@H](O)[C@H](O)[C@H]2O)O[C@H]2C[C@H]3[C@@H]4CC=C5C[C@@H](O[C@@H]6O[C@H](CO)[C@@H](O[C@@H]7O[C@@H](C)[C@H](O)[C@@H](O)[C@H]7O)[C@H](O)[C@H]6O[C@@H]6O[C@@H](C)[C@H](O)[C@@H](O)[C@H]6O)CC[C@]5(C)[C@H]4CC[C@]3(C)[C@@H]12` [PCM-0216365], the inhibition at 10 µM is -11.9%.

Consider `CCN(CC)Cc1ccc2cc(COC(=O)Nc3ccc(C(=O)NO)cc3)ccc2c1` [PCM-0095219], for which the inhibition at 10 µM was -10.1%.

Consider `O=Cc1ccccc1` [PCM-0216202], for which the inhibition at 10 µM is -2.3%.

As for `CC(C)(C)NS(=O)(=O)c1cncc(-c2cc(F)c3nc(N)nn3c2)c1` [PCM-0215240], the inhibition at 10 µM was -4.8%.

Consider `O=C(CSc1nc2c(c(=O)n1-c1ccccc1)SCC2)Nc1ccc(-c2ccccc2)cn1` [PCM-0215278], for which the inhibition at 10 µM was -8.5%.

For `Oc1ccc(-c2nc(-c3ccc(F)cc3)c(-c3ccncc3)[nH]2)cc1` [PCM-0064463], the inhibition at 10 µM is 18.6%.

For the molecule `CCn1cc(C(=O)O)c(=O)c2cc(F)c(N3CCNCC3)cc21` [PCM-0085898], the inhibition at 10 µM was -12.8%.

As to `N#Cc1c(O)c2c(-c3ccc(-c4ccccc4O)cc3)csc2[nH]c1=O` [PCM-0095407], the inhibition at 10 µM was 51.7%.

For `C#C[C@]1(O)CC[C@H]2[C@@H]3CCc4cc(OC5CCCC5)ccc4[C@H]3CC[C@@]21C` [PCM-0214893], the inhibition at 10 µM is -8.6%.

On to `CC12CCC(CC1=O)C2(C)C` (stereo not drawn) [PCM-0214819], for which the inhibition at 10 µM was -3.9%.

On to `CN(C)CC/C=C1/c2ccccc2COc2ccc(CC(=O)O)cc21` [PCM-0086250], for which the inhibition at 10 µM was determined as 8.3%.

As to `CC[C@@H]([C@H](C)O)n1ncn(-c2ccc(N3CCN(c4ccc(OC[C@@H]5CO[C@@](Cn6cncn6)(c6ccc(F)cc6F)C5)cc4)CC3)cc2)c1=O` [PCM-0214608], the inhibition at 10 µM amounted to 4.7%.

Turning to `CCC(=C(c1ccc(O)cc1)c1ccc(OCCN(C)C)cc1)c1ccccc1` [PCM-0215638], the inhibition at 10 µM was -11.6%.

With `COC(=O)N(C)c1c(N)nc(-c2nn(Cc3ccccc3F)c3ncccc23)nc1N` [PCM-0215574], the inhibition at 10 µM is -25.5%.

On to `CC(C)[C@H](N)C(=O)OCC(CO)OCn1cnc2c(=O)[nH]c(N)nc21` (stereo partly drawn) [PCM-0214750], for which the inhibition at 10 µM is -2.3%.

On to `CC[C@H]1OC(=O)[C@H](C)[C@@H](O[C@H]2C[C@@](C)(OC)[C@@H](O)[C@H](C)O2)[C@H](C)[C@@H](O[C@@H]2O[C@H](C)C[C@H](N(C)C)[C@H]2O)[C@](C)(O)C[C@@H](C)C(=O)[C@H](C)[C@H]2OC(=O)O[C@@]21C` [PCM-0215364], for which the inhibition at 10 µM is -20.8%.

Turning to `Cc1nc(Nc2n[nH]c3c2CN(C(=O)N[C@H](CN(C)C)c2ccccc2)C3(C)C)c2sccc2n1` [PCM-0095819], the inhibition at 10 µM came to 72.4%.

Turning to `O=C(O)c1ccc(Cl)cc1O` [PCM-0214870], the inhibition at 10 µM was -10.9%.

As to `c1ccc(CNCc2ccc(CN3CCCNCCNCCCNCC3)cc2)nc1` [PCM-0215781], the inhibition at 10 µM was -2.6%.

Consider `COCC1(CO)C(=O)C2CCN1CC2` (stereo not drawn) [PCM-0215751], for which the inhibition at 10 µM is 0%.

Regarding `O=[N+]([O-])c1ccc(Sc2cccc[n+]2[O-])c2nonc12` [PCM-0215705], the inhibition at 10 µM is 73.4%.

Consider `Cc1cc(-c2ccc(CC(=O)Nc3ccc(-c4cccnc4)cc3)cc2)ccn1` [PCM-0095743], for which the inhibition at 10 µM was -11.6%.

For the molecule `COc1cc(-c2cc(-c3ccc(N4CCNCC4)cc3)cnc2C)cc(OC)c1OC` [PCM-0215462], the inhibition at 10 µM was -19.3%.

For `COc1cccc(C(N)=O)c1` [PCM-0216109], the inhibition at 10 µM was found to be 2.3%.

As to `O=C(NCc1ccccc1)c1csc(Nc2ccncn2)n1` [PCM-0095135], the inhibition at 10 µM is -9%.

With `C=CC/C(=N\OS(=O)(=O)O)S[C@@H]1O[C@H](CO)[C@@H](O)[C@H](O)[C@H]1O` [PCM-0216356], the inhibition at 10 µM was 3.9%.

In the case of `Cc1ccc2c(c1)c1c(n2CCc2ccc(C)nc2)CCN(C)C1` [PCM-0095683], the inhibition at 10 µM was determined as 6.2%.

In the case of `O=C1C=C2C=C[C@@H](O)[C@H](O)[C@H]2O1` [PCM-0216441], the inhibition at 10 µM is 25.5%.

Turning to `O=C(O)c1ccc(CN2CCC(CN[C@@H]3C[C@H]3c3ccccc3)CC2)cc1` [PCM-0215597], the inhibition at 10 µM is 0.8%.

For `CCOC(=O)c1c(CSc2ccccc2)n(C)c2cc(Br)c(O)c(CN(C)C)c12` [PCM-0095296], the inhibition at 10 µM was 10.1%.

For `O=C(/C=C/c1ccc(O)c(O)c1)O[C@@H]1C[C@](O)(C(=O)O)C[C@@H](O)[C@H]1O` [PCM-0087069], the inhibition at 10 µM is -10.1%.

With `CNC(=O)c1cc(Oc2ccc(NC(=O)Nc3ccc(Cl)c(C(F)(F)F)c3)c(F)c2)ccn1` [PCM-0095050], the inhibition at 10 µM turned out to be 13.1%.

Take `CCOC(=O)[C@H](CCc1ccccc1)N[C@@H](C)C(=O)N1Cc2ccccc2C[C@H]1C(=O)O` [PCM-0086504]: the inhibition at 10 µM was -16.3%.

As usually defined, the inhibition is the relative decrease from the control value, in per cent.
